Laboratory results: PMC11079024, “Identification of a family of species-selective complex I inhibitors as potential anthelmintics” (Nature Communications, 2024)

Tested on: anthelmintic/nematicide-resistant C. elegans mutant strains
Assay: microbe, parasite or virus in culture
From the text: In addition to the Caenorhabditis elegans wild-type N2 strain, this work included the following C. elegans strains: CB1003 (kynu-1(e1003) X); anthelmintic-resistant strains—CB3474 (ben-1(e1880) III), CB193 (unc-29(e193) I), HY496 (bre-1(ye4) IV), RB2119 (acr-23(ok2804) V), JD608 (avr-14(ad1302) I; avr-15(ad1051) V; glc-1 (pk54) V), NM1968 (slo-1(js379) V), RP2635 (mev-1(tr355) III); benzimidazole-resistant CRISPR strains—ECA882 (ben-1(ean64) III), ECA917 (ben-1(ean98) III), ECA1075 (ben-1(ean143) III), ECA1080 (ben-1(ean148) III). This work also featured several additional free-living nematode strains: C. briggsae strain AF16, P. pacificus strain PS312, and P. hermaphrodita strain B178. The four CRISPR-generated benzimidazole-resistant C. elegans mutants were generously provided by Prof. Erik Andersen (Johns Hopkins University); PS312 and B178 were generously provided by Prof. Peter Roy (University of Toronto); all other strains were obtained from the Caenorhabditis Genetics Center (CGC, University of Minnesota). All strains were cultured and propagated at 20 °C on NGM (nematode growth medium) agar plates seeded with E. coli OP50 (Stiernagle, 2006)[56].
Liquid development and viability assays were adapted from a previously established chemical screening protocol (Burns et al.)[24]. In brief, a saturated culture of E. coli HB101 was concentrated 2-fold in liquid NGM and 40 μL of this suspension was distributed to each well of a 96-well flat-bottom culture plate. 0.5 μL chemical solution (or DMSO alone) was added to each well (1% DMSO v/v) using either a multi-channel pipette or a pinning tool (V&P Scientific). L1 worms synchronized from an embryo preparation performed the day prior were diluted to a concentration of ~2 worms/μL in M9 buffer; 10 μL worm suspension was then added to each well. Culture plates were sealed with parafilm and placed in a plastic container lined with wet paper towels to prevent evaporation. Containers were then incubated for 6 days at 20 °C with shaking at 165 rpm. Following incubation, 300 μL M9 was added to each well to decrease the turbidity of the HB101-NGM suspension. Single images of each microplate well were then taken on a Nikon Ti Eclipse inverted microscope (Nikon NIS Elements AR). Images were processed using Python scripts to isolate worm-associated pixels from background. Scores of worm development and viability were determined as the sum of worm-associated pixels in each well. Development/viability scores for each well were divided by the development /viability scores for the corresponding DMSO controls, resulting in a relative viability value for each chemical. At least three biological replicates were performed for each dose-response experiment; relative viability values were averaged across replicates.
Supplementary Table 2. Sensitivity of anthelmintic/nematicide-resistant strains to Class A, B, and C
benzimidazole complex I inhibitors.
LC50s were estimated from fitted dose-
response curves; all dose response data are the mean of at least three biological replicates.
Supplementary Table 2. Davie et al.

COC(=O)Nc1nc2ccc(Sc3ccccc3)cc2[nH]1 [fenbendazole, reference compound]
0.759: C. elegans L1 relative development & viability (score 0-1 relative to DMSO controls) (125 µM, strain ECA1080, E198A (ben-1)) | C. elegans L1 relative development & viability (ECA1080 E198A (ben-1), 125 µM, […])
0.835: C. elegans L1 relative development & viability (score 0-1 relative to DMSO controls) (250 µM, strain ECA917, F200Y (ben-1)) | C. elegans L1 relative development & viability (ECA917 F200Y (ben-1), 250 µM, […])
0.784: C. elegans L1 relative development & viability (score 0-1 relative to DMSO controls) (125 µM, strain ECA917, F200Y (ben-1)) | C. elegans L1 relative development & viability (ECA917 F200Y (ben-1), 125 µM, […])
0.790: C. elegans L1 relative development & viability (score 0-1 relative to DMSO controls) (125 µM, strain CB3474, G104D (ben-1)) | C. elegans L1 relative development & viability (CB3474 G104D (ben-1), 125 µM, […])
0.796: C. elegans L1 relative development & viability (score 0-1 relative to DMSO controls) (250 µM, strain ECA1075, F167Y (ben-1)) | C. elegans L1 relative development & viability (ECA1075 F167Y (ben-1), 250 µM, […])
0.597: C. elegans L1 relative development & viability (score 0-1 relative to DMSO controls) (500 µM, strain ECA1080, E198A (ben-1)) | C. elegans L1 relative development & viability (ECA1080 E198A (ben-1), 500 µM, […])
0.599: C. elegans L1 relative development & viability (score 0-1 relative to DMSO controls) (500 µM, strain ECA1075, F167Y (ben-1)) | C. elegans L1 relative development & viability (ECA1075 F167Y (ben-1), 500 µM, […])
0.716: C. elegans L1 relative development & viability (score 0-1 relative to DMSO controls) (500 µM, strain ECA917, F200Y (ben-1)) | C. elegans L1 relative development & viability (ECA917 F200Y (ben-1), 500 µM, […])
0.957: C. elegans L1 relative development & viability (score 0-1 relative to DMSO controls) (15.6 µM, strain ECA1080, E198A (ben-1)) | C. elegans L1 relative development & viability (ECA1080 E198A (ben-1), 15.6 µM, […])
0.686: C. elegans L1 relative development & viability (score 0-1 relative to DMSO controls) (250 µM, strain ECA1080, E198A (ben-1)) | C. elegans L1 relative development & viability (ECA1080 E198A (ben-1), 250 µM, […])
0.934: C. elegans L1 relative development & viability (score 0-1 relative to DMSO controls) (62.5 µM, strain ECA1075, F167Y (ben-1)) | C. elegans L1 relative development & viability (ECA1075 F167Y (ben-1), 62.5 µM, […])
0.845: C. elegans L1 relative development & viability (score 0-1 relative to DMSO controls) (62.5 µM, strain CB3474, G104D (ben-1)) | C. elegans L1 relative development & viability (CB3474 G104D (ben-1), 62.5 µM, […])
0.538: C. elegans L1 relative development & viability (score 0-1 relative to DMSO controls) (500 µM, strain CB3474, G104D (ben-1)) | C. elegans L1 relative development & viability (CB3474 G104D (ben-1), 500 µM, […])
0.720: C. elegans L1 relative development & viability (score 0-1 relative to DMSO controls) (250 µM, strain CB3474, G104D (ben-1)) | C. elegans L1 relative development & viability (CB3474 G104D (ben-1), 250 µM, […])
1.000: C. elegans L1 relative development & viability (score 0-1 relative to DMSO controls) (1 µM, strain CB3474, G104D (ben-1)) | C. elegans L1 relative development & viability (score 0-1 relative to DMSO controls) (1 µM, strain ECA917, F200Y (ben-1)) | C. elegans L1 relative development & viability (score 0-1 relative to DMSO controls) (1 µM, strain ECA1075, F167Y (ben-1)) | C. elegans L1 relative development & viability (score 0-1 relative to DMSO controls) (1 µM, strain ECA1080, E198A (ben-1)) | C. elegans L1 relative development & viability (score 0-1 relative to DMSO controls) (2 µM, strain CB3474, G104D (ben-1)) | C. elegans L1 relative development & viability (score 0-1 relative to DMSO controls) (2 µM, strain ECA917, F200Y (ben-1)) | C. elegans L1 relative development & viability (score 0-1 relative to DMSO controls) (2 µM, strain ECA1075, F167Y (ben-1)) | C. elegans L1 relative development & viability (score 0-1 relative to DMSO controls) (2 µM, strain ECA1080, E198A (ben-1)) | C. elegans L1 relative development & viability (score 0-1 relative to DMSO controls) (3.9 µM, strain CB3474, G104D (ben-1)) | C. elegans L1 relative development & viability (score 0-1 relative to DMSO controls) (3.9 µM, strain ECA917, F200Y (ben-1)) | C. elegans L1 relative development & viability (score 0-1 relative to DMSO controls) (3.9 µM, strain ECA1075, F167Y (ben-1)) | C. elegans L1 relative development & viability (score 0-1 relative to DMSO controls) (3.9 µM, strain ECA1080, E198A (ben-1)) | C. elegans L1 relative development & viability (score 0-1 relative to DMSO controls) (15.6 µM, strain CB3474, G104D (ben-1)) | C. elegans L1 relative development & viability (score 0-1 relative to DMSO controls) (15.6 µM, strain ECA917, F200Y (ben-1)) | C. elegans L1 relative development & viability (score 0-1 relative to DMSO controls) (15.6 µM, strain ECA1075, F167Y (ben-1)) | C. elegans L1 relative development & viability (score 0-1 relative to DMSO controls) (31.3 µM, strain CB3474, G104D (ben-1)) | C. elegans L1 relative development & viability (score 0-1 relative to DMSO controls) (31.3 µM, strain ECA917, F200Y (ben-1)) | C. elegans L1 relative development & viability (score 0-1 relative to DMSO controls) (31.3 µM, strain ECA1075, F167Y (ben-1)) | C. elegans L1 relative development & viability (score 0-1 relative to DMSO controls) (31.3 µM, strain ECA1080, E198A (ben-1)) | C. elegans L1 relative development & viability (score 0-1 relative to DMSO controls) (62.5 µM, strain ECA917, F200Y (ben-1)) | C. elegans L1 relative development & viability (score 0-1 relative to DMSO controls) (62.5 µM, strain ECA1080, E198A (ben-1)) | C. elegans L1 relative development & viability (CB3474 G104D (ben-1), 1 µM, score 0-1 relative to DMSO, values >1 set to 1) | C. elegans L1 relative development & viability (CB3474 G104D (ben-1), 2 µM, score 0-1 relative to DMSO, values >1 set to 1) | C. elegans L1 relative development & viability (CB3474 G104D (ben-1), 3.9 µM, score 0-1 relative to DMSO, values >1 set to 1) | C. elegans L1 relative development & viability (CB3474 G104D (ben-1), 15.6 µM, score 0-1 relative to DMSO, values >1 set to 1) | C. elegans L1 relative development & viability (CB3474 G104D (ben-1), 31.3 µM, score 0-1 relative to DMSO, values >1 set to 1) | C. elegans L1 relative development & viability (ECA917 F200Y (ben-1), 1 µM, score 0-1 relative to DMSO, values >1 set to 1) | C. elegans L1 relative development & viability (ECA917 F200Y (ben-1), 2 µM, score 0-1 relative to DMSO, values >1 set to 1) | C. elegans L1 relative development & viability (ECA917 F200Y (ben-1), 3.9 µM, score 0-1 relative to DMSO, values >1 set to 1) | C. elegans L1 relative development & viability (ECA917 F200Y (ben-1), 15.6 µM, score 0-1 relative to DMSO, values >1 set to 1) | C. elegans L1 relative development & viability (ECA917 F200Y (ben-1), 31.3 µM, score 0-1 relative to DMSO, values >1 set to 1) | C. elegans L1 relative development & viability (ECA917 F200Y (ben-1), 62.5 µM, score 0-1 relative to DMSO, values >1 set to 1) | C. elegans L1 relative development & viability (ECA1075 F167Y (ben-1), 1 µM, score 0-1 relative to DMSO, values >1 set to 1) | C. elegans L1 relative development & viability (ECA1075 F167Y (ben-1), 2 µM, score 0-1 relative to DMSO, values >1 set to 1) | C. elegans L1 relative development & viability (ECA1075 F167Y (ben-1), 3.9 µM, score 0-1 relative to DMSO, values >1 set to 1) | C. elegans L1 relative development & viability (ECA1075 F167Y (ben-1), 15.6 µM, score 0-1 relative to DMSO, values >1 set to 1) | C. elegans L1 relative development & viability (ECA1075 F167Y (ben-1), 31.3 µM, score 0-1 relative to DMSO, values >1 set to 1) | C. elegans L1 relative development & viability (ECA1080 E198A (ben-1), 1 µM, score 0-1 relative to DMSO, values >1 set to 1) | C. elegans L1 relative development & viability (ECA1080 E198A (ben-1), 2 µM, score 0-1 relative to DMSO, values >1 set to 1) | C. elegans L1 relative development & viability (ECA1080 E198A (ben-1), 3.9 µM, score 0-1 relative to DMSO, values >1 set to 1) | C. elegans L1 relative development & viability (ECA1080 E198A (ben-1), 31.3 µM, score 0-1 relative to DMSO, values >1 set to 1) | C. elegans L1 relative development & viability (ECA1080 E198A (ben-1), 62.5 µM, score 0-1 relative to DMSO, values >1 set to 1)
0.665: C. elegans L1 relative development & viability (score 0-1 relative to DMSO controls) (125 µM, strain ECA1075, F167Y (ben-1)) | C. elegans L1 relative development & viability (ECA1075 F167Y (ben-1), 125 µM, […])
